# Literature values, collected in patent US4440778A, “Anti-inflammatory analgesic cataplasm and process for producing the same” (Kowa Co., Ltd., priority 1981, dated 1984).
# How the values were obtained:
# [1] = administered orally
# [2] = not given; remark: listed apart in the source
# [3] = mixed with and suspended in base components, pH 7 or higher
compound,measurement,setting,value
"COc1ccc2c(c1)c(CC(=O)O)c(C)n2C(=O)c1ccc(Cl)cc1 [indomethacin, Indomethacin]",adverse effects: central nervous system troubles,[1],"central nervous system troubles such as frontal head ache, drowsiness, dizziness and mental disorders"
same,adverse effects: gastroenteric troubles,[1],"gastroenteric troubles such as decreased appetite, nausea, vomiting, indigestion, diarrhoea and stomach ache"
same,absorbability through the skin in a pH range of 7 or higher,[3],less absorbable through the skin
same,percutaneous absorption,stratum corneum and basal cell layer act as barriers,not subject to percutaneous absorption
same,chemical stability when dissolved in an alkaline solution,[2]; alkaline solution,chemically unstable and readily decomposable
same,solubility in an alkaline solution,[2]; alkaline solution,soluble in an alkaline solution
same,stability in a pH range of 7 or higher,[2]; [3],less stable
same,solubility in water,[2]; water,insoluble in water
